From patent US5591752A, “Quinoline derivative” (Ube Industries, Ltd., priority 1993, dated 1997) come the findings set out here.

Like-named read-outs stand apart in the source and are kept apart here.

In assay [1] the test system is Leukotriene D4-induced respiratory contraction. Nature of the assay: Leukotriene D4-induced respiratory contraction test (Konzett and Rossler method). The assay is classed as in vivo, guinea pig. Conditions: Cavia porcellus, po, LTD4 0.5 μg/kg i.v. 1 hour later, anesthetized Hartley guinea pigs, read-out: Inhibition ratio. How it is done:
Leukotriene D4 -induced respiratory contraction test
Hartley strain male guinea pigs (body weight: 400 to 600 g, supplied by Nihon SLC Co.) were used and all of them were bred under conditions of constant temperature (23°±2° C.) and constant humidity ([…]). The animals which had been fasted for 24 hours before experiments were used.
LTD4 (Funakoshi) dissolved in a physiological saline solution (Otsuka Seiyaku) was used. The compounds to be tested suspended in a 0.5% carboxymethyl cellulose aqueous solution were used.
The operation was conducted according to the method of Konzett and Rossler (Konzett, H. and Rossler, R. Naunyn Schmiedebergs (1940) Arch. Exp. Pathol. Pharmacol., 195, 71.). Each guinea pig was anesthetized with urethane (1.5 g/kg, i.p.) and then fixed in the supine position. A trachea was incised and a .phi. type cannula was inserted into the trachea and connected to a respirator (Shinano Seisakusho, SN-480-7) for small animals. Artificial respiration with positive pressure was conducted with a pressure loaded to a lung of 10 cm H2 O, an air supplying rate of 5 ml/stroke and 60 strokes/min. The air supplying rate to the trachea was measured by differential pressure transducers (Nihon Koden, TU-241T and TP-602T) connected to the cannula in the trachea and recorded on a rectigraph (Nihon Koden, WT-645G Model).
LTD4 (0.5 μg/kg/0.5 ml) was administered intravenously (i.v.) from a cannula inserted into a common jugular vein to cause shrinkage of a trachea. Subsequently, a compound to be tested was administered orally (p.o.) after 10 minutes and LTD4 was administered intravenously (i.v.) again after 1 hour to cause shrinkage of the trachea. The results are shown by using a ratio of inhibiting a trachea-shrinking reaction before administering the compound to be tested.

Assay [2] has as its target T1, Leukotriene D4 (LTD4) receptor (Cavia porcellus, UniProt Q2NNR5).
T1 construct: lung cell membrane fractions of guinea pigs were used; from tissue; host or cells: lung membrane fractions of Hartley strain male guinea pigs
T1 sequence (Q2NNR5 1-340): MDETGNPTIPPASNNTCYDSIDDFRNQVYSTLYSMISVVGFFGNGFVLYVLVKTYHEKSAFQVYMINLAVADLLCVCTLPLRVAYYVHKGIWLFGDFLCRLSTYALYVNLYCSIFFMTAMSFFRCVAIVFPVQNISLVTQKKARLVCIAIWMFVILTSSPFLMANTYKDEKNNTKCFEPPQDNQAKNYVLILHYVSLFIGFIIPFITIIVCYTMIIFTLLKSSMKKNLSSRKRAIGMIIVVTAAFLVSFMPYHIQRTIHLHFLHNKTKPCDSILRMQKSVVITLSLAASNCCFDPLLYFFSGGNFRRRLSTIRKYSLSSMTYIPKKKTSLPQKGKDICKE
Nature of the assay: Leukotriene D4 receptor binding test ([3H]ICI-198615 displacement, lung cell membrane fractions). Conditions: guinea pig lung membranes, [3H]ICI-198615 about 0.2 nM, pKi=-log Ki. The protocol: Leukotriene D4 receptor binding test
<Preparation of receptor samples>
As receptor samples, lung cell membrane fractions of guinea pigs were used. The membrane fractions were prepared according to the method of Ahn et al. (Ahn, H. S. & Barnett, A. (1986) Eur. J. Pharmacol., 127, 153.). After Hartley strain male guinea pigs (body weight: 400 to 500 g, supplied by Nihon SLC Co.) were killed by exsanguination, lungs were extracted and perfused with a physiological saline solution (Otsuka Seiyaku) from lung arteries. The extracted lungs were cut into pieces immediately or after the lungs were stored by freezing them at -80 ° C. A 10-fold amount of a buffer solution (pH 7.4) of 10 mM PIPES, 10 mM MgCl2, 10 mM CaCl2 and 50 mM NaCl was added thereto and the mixtures were made suspensions by a homogenizer (manufactured by Yamato Co., LP-41C Model). After the suspensions were filtered with gauze, the filtrates were centrifuged by an ultracentrifuge (manufactured by Hitachi Co., 70P-72 Model) with 50,000 g for 10 minutes, whereby membrane fractions were deposited. The membrane fractions were washed twice and then suspended in the same buffer solution to obtain receptor samples. Measurement of a protein concentration was conducted by the Lowry method (Lowry, O, H. et al. (1951) J. Biol. Chem., 193,265.) by using bovine serum albumin as a standard protein. The samples prepared (protein amount: 10 to 25 mg/ml) were stored by freezing them at -80° C. and used for experiments.
<Leukotriene D4 receptor binding test>
The leukotriene D4 (LTD4) receptor binding test was conducted according to the method of O'Sullivan et al. (O'Sullivan, B. P. & Mong, S. (1989) Mol. Pharmacol., 35, 795.). The receptor samples were diluted with a buffer solution (pH 7.4) of 10 mM PIPES, 10 mM MgCl2, 10 mM CaCl2 and 50 mM NaCl and 0.42 mg/ml in terms of a protein amount was used. As a labeling compound, [^3 H]ICI-198615 (produced by Du Pont Co., 60 Ci/mmol) which specifically binds to the LTD4 receptor was used. [^3 H]ICI-198615 and a compound to be tested were dissolved in dimethylsulfoxide and a 1/50 amount (2% by volume) of the solution was added to the receptor-diluted solutions, respectively. 500 μl of each reaction mixture was incubated at 25° C. for 40 minutes and then filtered with a glass fiber filter (Whatman, GF/B type) by using a cell harvester (manufactured by Brandel Co., M-30R Model). The filters were washed with 10 ml of an ice-cooled 100 mM NaCl-50 mM phosphate buffer solution (pH 7.5) and subjected to ultrasonic treatment in 9 ml of a liquid scintillator (manufactured by Nacalai Tesque, Co., Clear sol I) for 2 minutes. Thereafter, radioactivity was measured by a liquid scintillation counter (manufactured by Packard Co., 2000 CA Model). In a test of determining a dissociation constant of ICI-198615, 0.1 to 2 nM [^3 H]ICI-198615 and 10 μM non-radioactive ICI-198615 were used. In a test of determining inhibition constants of the respective compounds to be tested, [^3 H]ICI-198615 having a concentration of about 0.2 nM and the compounds each having a concentration of 0.1 pM to 0.1 mM were used.
<Data analysis of receptor binding test>
The dissociation constant (Kd) of ICI-198615 and the binding inhibition constants (Ki) of the respective compounds to be tested were determined by the following numerical formulae (A), (B) and (C).
wherein B: a concentration of a label [3H] which is bound to a receptor, Bmax: a maximum receptor-binding concentration of a label [^3 H], F: a concentration of a label [^3 H] which is not bound to a receptor, [L]: a concentration of a label [^3 H], IC50 : a concentration of a compound which inhibits 50% of binding of a label [^3 H] to a receptor and pKi: a logarithm, of a reciprocal of Ki.

Setting [3] is: read-out: pKi value (converted).

On to `O=C(O)CCSC1c2ccccc2COc2ccc(OCc3ccc4cc(F)c(Cl)cc4n3)cc21` (centres unmarked) [Example 1, 11-(2-Carboxyethylthio)-2-(7-chloro-6-fluoroquinolin-2-yl)methoxy-6,11-dihydrodibenz[b,e]oxepine], for which the inhibition in vivo at 1 mg/kg in assay [1] amounted to 100%. Compound `O=C(O)CCSC1c2ccccc2COc2ccc(OCc3ccc4ccc(F)cc4n3)cc21` (centres unmarked) [Example 4, 11-(2-Carboxyethylthio)-2-(7-fluoroquinolin-2-yl)methoxy-6,11-dihydrodibenz[b,e]oxepine] had a Ki in assay [2] (pKi value) of 1.58 nM. For the same compound, in assay [1], the inhibition in vivo at 1 mg/kg came to 93%. Taken in the same sequence, the figures for `O=C(O)CCSC1c2ccccc2COc2ccc(OCc3ccc4ccc(Cl)cc4n3)cc21` (centres unmarked) [Example 2, 11-(2-Carboxyethylthio)-2-(7-chloroquinolin-2-yl)methoxy-6,11-dihydrodibenz[b,e]oxepine] were 0.794 nM and 100%.

`O=C(O)CSC1c2ccccc2COc2ccc(OCc3ccc4ccc(Cl)cc4n3)cc21` (centres unmarked) [Example 21, 11-Carboxymethylthio-2-(7-chloroquinolin-2-yl)methoxy-6,11-dihydrodibenz[b,e]oxepine]: in assay [2] (pKi value), the Ki is 0.794 nM. Also, the inhibition in vivo at 1 mg/kg in assay [1] amounted to 71%.

On to `O=C(O)CCSC1c2ccccc2COc2ccc(OCc3ccc4cc(F)c(Cl)cc4n3)cc21` (single isomer, unassigned; (+)) [Example 50, (+)-11-(2-Carboxyethylthio)-2-(7-chloro-6-fluoroquinolin-2-yl)methoxy-6,11-dihydrodibenz[b,e]oxepine], for which the Ki in assay [2] (pKi value) was 0.0794 nM. The inhibition in vivo at 1 mg/kg in assay [1] was 100%. As for `O=C(O)COC1c2ccccc2COc2ccc(OCc3ccc4cc(Cl)ccc4n3)cc21` (centres unmarked) [Example 26, 11-Carboxymethoxy-2-(6-Chloroquinolin-2-yl)methoxy-6,11-dihydrodibenz[b,e]oxepine], the Ki in assay [2] (setting [3]) was 1.58 nM. The inhibition in vivo at 1 mg/kg in assay [1] was 87%. `c1ccc(Cc2nnn[nH]2)c(COc2ccc(OCc3ccc4ccccc4n3)cc2)c1` [Compound A, 5-[[2-[[4-(2-quinolinylmethoxy)phenoxy]methyl]phenyl]methyl]-1H-tetrazole, reference compound]: in assay [2] (setting [3]), the Ki was 6.31 nM. Besides, in assay [1], the inhibition in vivo at 1 mg/kg was determined as 51%. For the compound `COc1ccc2c(c1)COc1ccc(OCc3ccc4ccc(Cl)cc4n3)cc1C2SCCC(=O)O` (centres unmarked) [Example 13, 11-(2-Carboxyethylthio)-2-(7-chloroquinolin-2-yl)methoxy-8-methoxy-6,11-dihydrodibenz[b,e]oxepine], the Ki in assay [2] (pKi value) is 0.794 nM. The inhibition in vivo at 1 mg/kg in assay [1] was 67%. The compound `O=C(O)CCSC1c2ccccc2COc2ccc(OCc3ccc4cc(F)ccc4n3)cc21` (centres unmarked) [Example 3, 11-(2-Carboxyethylthio)-2-(6-fluoroquinolin-2-yl)methoxy-6,11-dihydrodibenz[b,e]oxepine] gave a Ki in assay [2] (pKi value) of 3.16 nM. Moreover, the inhibition in vivo at 1 mg/kg in assay [1] turned out to be 100%.
